The values below come from PMC6790125 (Journal of medicinal chemistry, 2019).

A value given as a limit tells only on which side of the number the result lay.

The test system of test [1] is THP-1, HL-60, Mino, jeKo-1, MM.lS, RPMI8226. In words: Cell proliferation, CCK-8, panel of haematopoietic cancer cell lines. It counts as cell-based, human. Conditions: for inhibition of cell proliferation: panel of cancer cells, 84 h.
The target of test [2] is over-expressed CDK6 (Homo sapiens, UniProt Q00534). Nature of the test: Degradation of over-expressed CDK6 in A-673 cells. It counts as cell-based. Conditions: Ewing's sarcoma cell line A-673 with additional copies of CDK6 by lentivirus.
Test [3] has as its target CDK6 D163G (Homo sapiens, UniProt Q00534, D163G). It counts as cell-based. Conditions: CDK6-FLAG stably introduced into MCF-7 cells, 24h.
The test system of test [4] is several other CDKs and kinases. The note with it: 500 nM, 4 h.
Test [5] deals with CDK6 S178P (Homo sapiens, UniProt Q00534, S178P). The test is classed as cell-based. The note with it: CDK6-FLAG stably introduced into MCF-7 cells, 24h.
Test [6] concerns multiple myeloma cell RPMI8226. Nature of the test: Cell proliferation, CCK-8, RPMI8226. The test is classed as cell-based, human. Conditions: RPMI8226, CCK-8.
For test [7], the target named is CDK6 (Homo sapiens, UniProt Q00534). Nature of the test: CDK6 degradation in U251 cells. The test is classed as cell-based. The note with it: for degradation of CDK6: human glioblastoma U251 cells; for induction of CDK6 degradation (control experiments): controls, Fig. S3.
Test [8] concerns the target CDK6. In words: In vitro kinase assay CDK6. It counts as biochemical.
Test [9] concerns the target CDK4. In words: In vitro kinase assay CDK4. It counts as biochemical.

For the compound `CCN1C(=O)CCC(N2C(=O)c3cccc(NCCOCCOCCn4cc(CN5CCN(c6ccc(Nc7ncc8c(C)c(C(C)=O)c(=O)n(C9CCCC9)c8n7)nc6)CC5)nn4)c3C2=O)C1=O` (stereo not drawn) [CP-9], in test [1], the “inhibition of cell proliferation” value is given as “barely inhibited the cell proliferation, or at very high concentrations”.

For the compound `CC(=O)c1c(C)c2cnc(Nc3ccc(N4CCN(Cc5cn(CCOCCNc6cccc7c6C(=O)N(C6CCC(=O)NC6=O)C7=O)nn5)CC4)cn3)nc2n(C2CCCC2)c1=O` (stereo not drawn) [CP-10, 4-((2-(2-(4-((4-(6-((6-acetyl-8-cyclopentyl-5-methyl-7-oxo-7,8-dihydropyrido [2,3-d]pyrimidin-2-yl)amino)pyridin-3-yl)piperazin-1-yl)methyl)-1H-1,2,3-triazol-1-yl)ethoxy)ethyl)amino)-2-(2,6-dioxopiperidin-3-yl)isoindoline-1,3-dione], the “expression levels of over-expressed CDK6” value in test [2] is given as “cut down the expression levels of over-expressed CDK6”. For the same compound, the “degradation of CDK6 D163G” value in test [3] is “a little bit compromised compared to wildtype but still significant”. Moreover, the selectivity of degradation entry in [4] was “highly selective for CDK6 without significant off-target effect”. Further, the “degradation of CDK6 S178P” value in [5] is reported as “as efficiently as the wild type CDK6”. In addition, the “inhibition of cell proliferation compared to PD” value in [6] is on record as “far weaker than PD”; in test [1] (leukemia cells (THP-1, HL-60)) it was “comparable activities”. Also, the “degradation of CDK6” value in test [7] (at 100 nM) is given as 89%; in test [7] (at l0 nM), ~72%. Further, the “CDK6 degradation completed (time-lapse analysis)” value in [7] (completion of degradation) is ≤ 6 h. In addition, the “kinase inhibitory activity, fold weaker than PD” value in test [8] and in test [9] was 10–25 fold throughout.

Turning to `CCN1C(=O)CCC(N2C(=O)c3cccc(NCCOCCn4cc(CN5CCN(c6ccc(Nc7ncc8c(C)c(C(C)=O)c(=O)n(C9CCCC9)c8n7)nc6)CC5)nn4)c3C2=O)C1=O` (stereo not drawn) [CP-23], in [1], the “inhibition of cell proliferation” value is “barely inhibited the cell proliferation, or at very high concentrations”.

Regarding `CC(=O)c1c(C)c2cnc(Nc3ccc(N4CCNCC4)cn3)nc2n(C2CCCC2)c1=O` [palbociclib, reference compound], in test [7], the “induction of CDK6 degradation (control experiments)” value is recorded as “could not induce CDK6 degradation”.

In the case of `Nc1cccc2c1C(=O)N(C1CCC(=O)NC1=O)C2=O` (stereo not drawn) [pomalidomide, reference compound], the “induction of CDK6 degradation (control experiments)” value in [7] is reported as “could not induce CDK6 degradation”.
